Experimental data reported in paper PMC4626104, “Inhibition on Proteasome β1 Subunit Might Contribute to the Anti-Cancer Effects of Fangchinoline in Human Prostate Cancer Cells” (PLoS ONE, 2015).

What was measured:
[1] = test system: T1, cellular proteasome of PC-3 cells; assay: Cellular proteasome activities of PC-3 cells; assay type: cell-based, human
T1 construct: endogenous in cells; host or cells: PC-3 cells, whole cell extract
Experimental: (§1) Cells were treated with either solvent control (0.1% DMSO), fangchinoline at different concentrations, or 1 μM carfilzomib (positive control) for 24 h at 37 °C. The enzymatic activities of cellular proteasome in cell lysate were measured as reported in our previous paper. Briefly, cells were harvested, washed with PBS and then lysed in proteasome activity assay buffer for 30 min at 4°C. The homogenate was then centrifuged at 12000 × g for 30 min at 4°C. The supernatant was collected as whole cell extract and the protein content in the supernatant was measured with the Bradford reagent. Catalytic activities of cellular proteasome were assayed by adding whole cell extract (containing 30 μg protein) to 100 μL of proteasome activity assay buffer containing 50 μM fluorogenic peptide substrates such as Z-LLE-AMC for detecting C-L activity, Z-ARR-AMC for detecting T-L activity or Suc-LLVY-AMC for detecting CT-L activity, respectively. The release of fluorogenic AMC from the peptide substrates was then measured as described above.

[2] = test system: T2, proteasome of PC-3 tumor xenografts; assay: Proteasome activities of tumor xenografts; assay type: in vivo, nude mice
T2 construct: from tissue; host or cells: PC-3 tumour xenografts from Balb/c-nu-nu mice, homogenate supernatant
Experimental: as §1
Male nude immunodeficient mice Balb/c-nu-nu, aged 4 weeks, were purchased from Shanghai Experimental Animal Center. […] Tumor sizes were measured every 4 days using calipers and their volumes were calculated using a standard formula: width^2×length/2. […] Body weight was measured daily. […]

[3] = test system: PSMB6 knockdown PC-3 cells; assay: MTT assay in PC-3 cells with knockdown of proteasome β1 subunit (PSMB6 siRNA); assay type: cell-based, human; settings: 72 h treatment, vs negative control cells
Experimental: The inhibitive effects of fangchinoline on proliferation of PC-3 cells or LnCap cells was observed by checking cell viability of cells using MTT assay as described before. Briefly, cells were seeded in 96-well plates at a density of 5×10^4 cells/mL for PC-3 cell and 4×10^4 cells/mL for LnCap cells. After overnight culture, the media were changed into fresh media containing various concentrations of fangchinoline or 0.1% DMSO (solvent control) for 24, 48 h or 72 h. Cell viability was evaluated by measuring the mitochondrial-dependent conversion of the yellow tetrazolium salt MTT to purple formazan crystals by metabolic active cells. The optical density (proportional to the number of live cells) was assessed with a Microplate Reader Bio-Rad 550 at 570 nm. IC50 value (half-maximal inhibitory concentration) was calculated by the Logit method.
Validated siRNAs for PSMB6 (Sigma-Aldrich) were transfected into PC-3 cells by using Lipofectamine RNAiMAX (Invitrogen) according to the manufacturer’s protocol. Scrambled negative control siRNAs (Sigma-Aldrich) were used as negative control. Expression levels of PSMB6 (proteasome β1 subunit) in wide type cells, PSMB6 knockdown cells (cells treated with siRNAs for PSMB6), negative control cells (cells transfected with scrambled negative control siRNAs) were checked using Western blotting assay. […]

Compound: COc1ccc2cc1Oc1ccc(cc1)C[C@H]1c3cc(c(OC)cc3CCN1C)Oc1c(O)c(OC)cc3c1[C@H](C2)N(C)CC3 [fangchinoline]
- Inhibition of enzyme activity of cellular proteasome β1 subunit ([1]; 10 μM, 24 h treatment): about 50%
- Effect on chymotrypsin-like (CT-L) activity of cellular proteasome ([1]; PC-3 cells, 24 h): not significantly affected
- Effect on trypsin-like (T-L) activity of cellular proteasome ([1]; PC-3 cells, 24 h): not significantly affected
- Inhibition on C-L activity of cellular proteasome ([1]; PC-3 cells, 24 h, doses of 1 and 10 μM): significant
- Significance of decrease in proteasome activity of tumor xenografts ([2]; 50 mg/kg group): significant
- Proteasome activities of tumor xenografts compared with vehicle control ([2]; fangchinoline-treated groups (25 and 50 mg/kg)): decreased
- Effect of knockdown of proteasome β1 subunit on proliferation inhibition [3]: ameliorated proliferation-inhibiting effects
